In patent publication US9469665B2, “Compound having lysophosphatidylserine receptor function modulation activity” (THE UNIVERSITY OF TOKYO, priority 2013, dated 2016):
Structures can show the parent of a compound that is named as a salt.

Assays:
[1] = target: T1, mouse GPR34 (Mus musculus, UniProt Q9R1K6); experiment: TGFα shedding assay, agonistic activity on GPR34; type: cell-based; parameters: key to GPR34/LPS2 agonistic activity, TGFα shedding assay: an activity that is 100 folds that of control compound 1 as +++++; an activity that is 10 folds that of control compound 1 as ++++; the activity of the control compound 1 (LPS18:1) as +++; an activity that is 1/10 as ++; an activity that is 1/100 as +; an activity below that as −; details: for GPR34/LPS2 agonistic activity, TGFα shedding assay: HEK293 cells transfected with mouse GPR34 and AP labeled TGFα, activity relative to control compound 1 (LPS18:1) = +++
T1 construct: expressed in transfected cells; host or cells: HEK293
Procedure: (§1) [Test Example 1]Assay of Agonistic Activity by TGFα Shedding Assay
(§2) HEK293 cells were suspended in the Dulbecco's modified Eagle's medium (DMEM) containing 10% fetal bovine serum (FCS) to exist in an amount of 2.0×10^5 cells/mL, and they were seeded in 60 mm dishes at 4 mL per dish. Transfection of different expression vectors was performed using LipofectAMINE 2000 (Invitrogen) after 24 hours of culture under the presence of 5% CO2. For each 60 mm dish, 1 μg of AP labeled TGFα plasmid vectors were used, and 1 μg of pCAGGS plasmid vectors of mouse GPR34, P2Y10 or GPR174 were used. The plasmid vectors were prepared by methods disclosed in Patent Documents 2 and 5. Note that the AP labeled TGFα is a protein comprising a membrane-bound pro-TGFα whose N terminal end is fused with human placental alkaline phosphatase, and the plasmid vector of the AP labeled TGFα may be produced based on the teaching of Tokumaru et al., J Cell Biol 151, 209-220 (2000). After 24 hours of transfection, the cells were peeled off using trypsin/EDTA, and they were re-suspended in a culture medium to form an amount of 2.0×10^4 cells/well to be seeded to a 96-well plate. Hanks' Balanced Salt Solution (HBSS, containing 5 mM HEPES) was used for the re-suspended solution when stimulating with the compound. After it was left still for 30 min., subject compounds of various concentrations were added and the solutions were left still for another 1 hour under the presence of 5% CO2. The 96-well plate was subjected to centrifugation (190×g, 3 min.), then 80 μl of supernatant was transferred to a different 96-well plate. A reaction buffer (40 mM Tris-HCl (pH 9.5)) containing 10 mM p-nitrophenyl phosphate (p-NPP) was added in an amount of 80 μL to the supernatant and cells. The OD405 was measured with a micro plate reader (background), then after heating at 37° C. for an hour, OD405 was re-measured. The AP activity for each well was obtained by subtracting the background from the second absorbance and plugging the difference into the following formula.
(§3) In addition, the value obtained by subtracting the AP activity (%) of the non-stimulated group was used in the vertical axis to create a graph. The graphs of the test results for Example 3 (lysoPS sn-1-deoxy sn3 C3-ph-o-OBn-m-Oph) and Example 31 (lysoPS sn-1-OMe sn3 C3-ph-o-OBn-m-Oph) are shown in FIG. 1.
(§4) The obtained activity is shown by plotting the compound concentration and AP activity (%), then representing the activity of the control compound 1 (LPS18:1) as +++, an activity that is 10 folds that of control compound 1 as ++++, an activity that is 100 folds that of control compound 1 as +++++, an activity that is 1/10 as ++, and an activity that is 1/100 as +, and an activity below that as −.

[2] = target: T2, mouse GPR174 (Mus musculus, UniProt Q3U507); experiment: TGFα shedding assay, agonistic activity on GPR174; type: cell-based; parameters: key: an activity that is 100 folds that of control compound 1 as +++++; an activity that is 10 folds that of control compound 1 as ++++; the activity of the control compound 1 (LPS18:1) as +++; an activity that is 1/10 as ++; an activity that is 1/100 as +; an activity below that as −; details: HEK293 cells transfected with mouse GPR174 and AP labeled TGFα; activity relative to control compound 1 (LPS18:1) = +++
T2 construct: expressed in transfected cells; host or cells: HEK293
Procedure: as §1, §2, §3, §4

[3] = target: T3, mouse P2Y10 (Mus musculus, UniProt Q8BFU7); experiment: TGFα shedding assay, agonistic activity on P2Y10; type: cell-based; parameters: key: an activity that is 100 folds that of control compound 1 as +++++; an activity that is 10 folds that of control compound 1 as ++++; the activity of the control compound 1 (LPS18:1) as +++; an activity that is 1/10 as ++; an activity that is 1/100 as +; an activity below that as −; details: HEK293 cells transfected with mouse P2Y10 and AP labeled TGFα; activity relative to control compound 1 (LPS18:1) = +++
T3 construct: expressed in transfected cells; host or cells: HEK293
Procedure: as §1, §2, §3, §4

T2 sequence (Q3U507 whole entry): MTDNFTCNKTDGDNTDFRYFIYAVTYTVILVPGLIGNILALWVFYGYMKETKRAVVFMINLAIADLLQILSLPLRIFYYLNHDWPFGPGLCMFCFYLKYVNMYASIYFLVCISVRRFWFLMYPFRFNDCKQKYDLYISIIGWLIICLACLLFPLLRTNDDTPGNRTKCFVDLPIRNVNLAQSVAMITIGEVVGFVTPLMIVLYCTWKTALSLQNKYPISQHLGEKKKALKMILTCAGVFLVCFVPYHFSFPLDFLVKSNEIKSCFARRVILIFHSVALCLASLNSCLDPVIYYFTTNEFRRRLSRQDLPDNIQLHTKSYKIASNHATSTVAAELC
T3 sequence (Q8BFU7 whole entry): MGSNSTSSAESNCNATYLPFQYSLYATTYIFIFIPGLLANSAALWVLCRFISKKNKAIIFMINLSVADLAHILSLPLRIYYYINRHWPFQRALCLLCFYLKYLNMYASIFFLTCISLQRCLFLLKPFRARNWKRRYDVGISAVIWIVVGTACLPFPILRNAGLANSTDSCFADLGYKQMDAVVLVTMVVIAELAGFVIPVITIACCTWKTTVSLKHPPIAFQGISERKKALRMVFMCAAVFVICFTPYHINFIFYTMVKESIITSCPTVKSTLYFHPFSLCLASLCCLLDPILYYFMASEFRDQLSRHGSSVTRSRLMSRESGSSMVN
T1 sequence (Q9R1K6 whole entry): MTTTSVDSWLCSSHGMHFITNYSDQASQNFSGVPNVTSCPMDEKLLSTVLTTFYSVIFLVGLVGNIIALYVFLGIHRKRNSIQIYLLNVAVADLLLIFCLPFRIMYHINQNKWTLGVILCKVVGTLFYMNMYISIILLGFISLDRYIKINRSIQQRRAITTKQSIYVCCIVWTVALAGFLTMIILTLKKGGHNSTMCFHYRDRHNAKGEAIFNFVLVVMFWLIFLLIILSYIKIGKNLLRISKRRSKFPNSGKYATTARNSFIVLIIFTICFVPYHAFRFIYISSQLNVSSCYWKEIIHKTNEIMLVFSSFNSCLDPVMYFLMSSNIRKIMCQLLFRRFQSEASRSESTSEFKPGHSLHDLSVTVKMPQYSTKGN

Compound | melting point [°C] | GPR34/LPS2 agonistic activity, TGFα shedding assay [1] | GPR174/LPS3 agonistic activity, TGFα shedding assay [2] | P2Y10/LPS2 agonistic activity, TGFα shedding assay [3] | receptor selectivity of agonist activity among GPR34, P2Y10, GPR174 (graphs of FIG. 1) ([1]; TGFα shedding assay, HEK293 cells, AP activity (%) vs concentration)
CCCCCCCC/C=C\CCCCCCCC(=O)OC[C@H](C)OP(=O)(O)OC[C@H](N)C(=O)O (as salt: TFA) [Example 2, (9Z)-Octadeca-9-enoic acid (2S)-2-[((2S)-2-amino-2-carboxy-ethoxy)-hydroxy-phosphoryloxy]-propyl ester] | 133.5 to 134.5 |  |  |  | 
C[C@H](COC(=O)CCc1ccccc1OCc1cccc(Oc2ccccc2)c1)OP(=O)(O)OC[C@H](N)C(=O)O (as salt: TFA) [Example 3, (2S)-2-amino-3-[hydroxyl-((1R)-1-methyl-2-{3-[2-(3-phenoxy-benzyloxy)-phenyl]-propionyloxy}-ethoxy)-phosphoryloxy]-propionic acid] | 143.5 to 144.5 |  |  |  | 
CCCCCCCC/C=C\CCCCCCCC(=O)OC[C@@H](COC)OP(=O)(O)OC[C@H](N)C(=O)O (as salt: TFA) [Example 4, (9Z)-Octadeca-9-enoic acid (2R)-2-[((2S)-2-amino-2-carboxy-ethoxy)-hydroxy-phosphoryloxy]-3-methoxy-propyl ester] | 192.5 to 196 |  |  |  | 
CCCCCCCC/C=C\CCCCCCCC(=O)OC[C@H](COC)OP(=O)(O)OC[C@H](N)C(=O)O (as salt: TFA) [Example 5, (9Z)-Octadeca-9-enoic acid (2S)-2-[((2S)-2-amino-2-carboxy-ethoxy)-hydroxy-phosphoryloxy]-3-methoxy-propyl ester] | 149 to 150.5 |  |  |  | 
CCCCCCCC/C=C\CCCCCCCC(=O)OC[C@@H](COCC)OP(=O)(O)OC[C@H](N)C(=O)O (as salt: TFA) [Example 6, (9Z)-Octadeca-9-enoic acid (2R)-2-[((2S)-2-amino-2-carboxy-ethoxy)-hydroxy-phosphoryloxy]-3-ethoxypropyl ester] | 130.2 to 131 |  |  |  | 
N[C@@H](COP(=O)(O)O[C@@H]1CCCO[C@@H]1COC(=O)CCc1ccccc1OCc1cccc(Oc2ccccc2)c1)C(=O)O [Example 17] |  | ++++ | − | − | 
N[C@@H](COP(=O)(O)OC[C@H]1OCCC[C@H]1OC(=O)CCc1ccccc1OCc1cccc(Oc2ccccc2)c1)C(=O)O [Example 18] |  | ++++~+++++ | − | − | 
CCCCCCCCCCCOc1ccccc1CCC(=O)OC[C@H]1OCC=C[C@@H]1OP(=O)(O)OC[C@H](N)C(=O)O [Example 19, (2S)-2-amino-3-(hydroxyl-{(2R,3S)-2-[3-(2-undecyloxy-phenyl)-propionyloxymethyl]-3,6-dihydro-2H-pyran-3-yloxy}-phosphoryloxy)-propionic acid] |  | − | − | ++ | 
CCCCCCCC/C=C\CCCCCCCC(=O)OC[C@H]1OCCC[C@@H]1OP(=O)(O)OC[C@H](N)C(=O)O [Example 20, (9Z)-Octadeca-9-enoic acid (2R,3S)-3-[((2S)-2-amino-2-carboxy-ethoxy)-hydroxy-phosphoryloxy]-tetrahydro-pyran-2-ylmethyl ester] |  | +++~++++ | − | + | 
CCCCCCCCCCCOc1ccccc1CCC(=O)OC[C@H]1OCCC[C@@H]1OP(=O)(O)OC[C@H](N)C(=O)O [Example 21, (2S)-2-amino-3-(hydroxyl-{(2R,3S)-2-[3-(2-undecyloxy-phenyl)-propionyloxymethyl]-tetrahydro-pyran-3-yloxy}-phosphoryloxy)-propionic acid] |  | −~++ | − | ++ | 
N[C@@H](COP(=O)(O)O[C@H]1CCCO[C@@H]1COC(=O)CCc1ccccc1OCc1cccc(Oc2ccccc2)c1)C(=O)O [Example 22, (2S)-2-amino-3-[hydroxyl-((2R,3S)-2-{3-[2-(3-phenoxy-benzyloxy)-phenyl]-propionyloxymethyl}-tetrahydropyran-3-yloxy)-phosphoryloxy]-propionic acid] |  | +++ | − | − | 
CCCCCCCC/C=C\CCCCCCCC(=O)OC[C@H]1OCC=C[C@@H]1OP(=O)(O)OC[C@H](N)C(=O)O [Example 23, (9Z)-Octadeca-9-enoic acid (2R,3S)-3-[((2S)-2-amino-2-carboxy-ethoxy)-hydroxy-phosphoryloxy]-3,6-dihydro-2H-pyran-2-ylmethyl ester] |  | ++ | − | ++ | 
N[C@@H](COP(=O)(O)O[C@H]1C=CCO[C@@H]1COC(=O)CCc1ccccc1OCc1cccc(Oc2ccccc2)c1)C(=O)O [Example 24, (2S)-2-amino-3-[hydroxy-((2R,3S)-2-{3-[2-(3-phenoxy-benzyloxy)-phenyl]-propionyloxymethyl}-3,6-dihydro-2H-pyran-3-yloxy)-phosphoryloxy]-propionic acid] |  | +++ | − | ++~+++ | 
CCCCCCCCCCCOc1ccccc1CCC(=O)OC[C@H]1OCC=C[C@H]1OP(=O)(O)OC[C@H](N)C(=O)O [Example 25, (2S)-2-amino-3-(hydroxy-{(2R,3R)-2-[3-(2-undecyloxy-phenyl)-propionyloxymethyl]-3,6-dihydro-2H-pyran-3-yloxy}-phosphoryloxy)-propionic acid] |  | +~++ | − | +++~++++ | 
N[C@@H](COP(=O)(O)O[C@@H]1C=CCO[C@@H]1COC(=O)CCc1ccccc1OCc1cccc(Oc2ccccc2)c1)C(=O)O [Example 26, (2S)-2-amino-3-[hydroxyl-((2R,3R)-2-{3-[2-(3-phenoxybenzyloxy)-phenyl]-propionyloxymethyl}-3,6-dihydro-2H-pyran-3-yloxy)-phosphoryloxy]-propionic acid] |  | +++~++++ | − | ++ | 
COC[C@H](COC(=O)CCc1ccccc1OCc1cccc(Oc2ccccc2)c1)OP(=O)(O)OC[C@H](N)C(=O)O [Example 31, (2S)-2-amino-3-[hydroxy-((1R)-1-methoxymethyl-2-{3-[2-(3-phenoxy-benzyloxy)-phenyl]-propionyloxy}-ethoxy)-phosphoryloxy]-propionic acid] |  | +++++ | − | +~++ | agonists having selectivity against GPR34
